One block for each compound: values may come before it.
What was measured:
CCR2 [1] = target: T1, CCR2 (Homo sapiens, UniProt P41597); set-up: method as in PMID 30256641; conditions: cited from earlier work
T1 construct: host or cells: HEK293T, transient
T1 sequence (P41597 1-360 isoform P41597-2): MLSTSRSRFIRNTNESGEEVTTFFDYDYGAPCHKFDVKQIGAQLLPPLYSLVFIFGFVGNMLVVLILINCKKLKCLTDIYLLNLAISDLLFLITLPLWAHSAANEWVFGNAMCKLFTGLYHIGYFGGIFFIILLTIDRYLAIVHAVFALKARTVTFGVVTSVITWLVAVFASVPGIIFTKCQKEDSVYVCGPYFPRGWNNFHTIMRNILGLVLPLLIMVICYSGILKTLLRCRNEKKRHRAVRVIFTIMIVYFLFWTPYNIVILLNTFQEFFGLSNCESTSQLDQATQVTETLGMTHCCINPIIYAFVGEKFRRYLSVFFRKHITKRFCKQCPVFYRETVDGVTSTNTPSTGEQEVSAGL

CCR1 [2] = target: T2, CCR1 (Homo sapiens, UniProt P32246); set-up: Promega pNLF1-C (Nluc) #CCR010TN00; host or cells: HEK293T, transient (PEI); method as in PMID 30256641; conditions: binding; cited from earlier work
T2 sequence (P32246 1-355): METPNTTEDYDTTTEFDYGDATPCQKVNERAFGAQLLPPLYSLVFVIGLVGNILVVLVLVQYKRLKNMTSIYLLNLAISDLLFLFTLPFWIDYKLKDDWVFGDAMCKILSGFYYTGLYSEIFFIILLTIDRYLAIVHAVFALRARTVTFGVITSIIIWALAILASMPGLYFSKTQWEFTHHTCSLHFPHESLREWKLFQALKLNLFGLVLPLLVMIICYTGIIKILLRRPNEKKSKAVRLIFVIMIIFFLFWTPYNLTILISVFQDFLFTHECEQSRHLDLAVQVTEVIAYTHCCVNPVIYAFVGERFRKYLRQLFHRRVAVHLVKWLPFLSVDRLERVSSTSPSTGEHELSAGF

CCR2 [3] = target: T1, CCR2; set-up: method as in PMID 35838163; conditions: membrane-based setup; cited from earlier work
CCR1 [4] = target: T2, CCR1; experiment: Membrane-based NanoBRET saturation binding assay, CCR1_Nluc membranes from HEK293T cells; set-up: Promega pNLF1-C (Nluc) #CCR010TN00; host or cells: HEK293T, transient (PEI); conditions: saturation binding of fluorescent ligand, read-out: KD (equilibrium, KD(eq.))
Text: To evaluate the CCR1 affinity of previously reported (8–9) and new fluorescently labeled pyrrolones (11–12), we developed a NanoBRET-based binding assay (Figures 4A–H and S2A–J). To this end, we used a previously reported CCR1 construct (hereafter referred to as CCR1_Nluc) with a small and bright luciferase variant (nanoluciferase,[52] Nluc), fused to the intracellular C-terminus of CCR1 (Figures 4A and S2A).[47] […] This was expected, given the very low CCR2/CCR1 selectivity of the parental ligands 4 and 5 (Figure 1).[33] For further studies, we selected 12 due to its highest CCR1 affinity.
Cell culture: HEK293T cells were cultured as previously described.8 In brief, HEK293T cells (gift from Chair of Physiology, Prof. Dr. Alzheimer, FAU Erlangen-Nürnberg) were grown on 10 cm culture dishes at 37 °C and 5% CO2. As growth medium, Dulbecco's Modified Eagle Medium (DMEM)/F12 (Invitrogen) supplemented with 10% fetal bovine serum (FBS, Gibco™ Fetal Bovine Serum, qualified, Brazil), L-glutamine (final concentration: 2 mM; from Gibco™ L-glutamine 200 mM, 100X), penicillin (final concentration: 100 units/mL), and streptomycin (final concentration: 100 µg/mL; from Gibco™ Penicillin-Streptomycin 10,000 U/mL) was used. Cells were split every three to four days and regularly confirmed to be free of mycoplasma contamination using the luminescence-based MycoAlert Plus Kit (Lonza).
Transient transfection using polyethylenimine: For transfection, we used a previously published procedure.8 In brief, HEK293T cells were plated onto culture dishes (Ø 10 cm or Ø 15 cm) and grown to a confluence of approximately 50% at 37 °C and 5% CO2. The growth medium was renewed one-hour before transfection. The transfection mix was prepared, as described in the following. Solution A (0.4-2.2% total DNA (1-5.5 µg) in Gibco™ phosphate buffered saline, pH 7.4) and solution B (3% PEI (linear, 25 kDa, from Polysciences) solution prepared from a PEI stock solution (0.4 µg/µL) in PBS without MgCl2 and CaCl2) were mixed one to one, the resulting mixture was vortexed for 5 s and incubated for 30 min at room temperature. The pre-incubated transfection mix was added dropwise to the cells and cell cultivation was continued […]
Membrane preparation: Membranes were prepared as previously reported.8 In brief, membranes from HEK293T cells transiently expressing the respective GPCR were prepared as follows. The medium of the transfected cells was refreshed after 24 h before cells were harvested 48 h post-transfection. […]
Finally, the protein concentration was determined using the Lowry method.9 cDNA constructs: The CCR1-Nluc fusion construct (CCR1_Nluc) in pcDNA3.1 was generated as previously reported1 using the Gibson Assembly10 (New England Biolabs) method. […]

CCR9 = target: T3, CCR9 (Homo sapiens, UniProt P51686); experiment: NanoBRET-based assay for binding to the IABS of CCR9, as previously reported; conditions: compound at 20 μM; read-out: % inh. of tracer binding, CCR9
T3 construct: host or cells: HEK293T, transient
T3 sequence (P51686 1-369): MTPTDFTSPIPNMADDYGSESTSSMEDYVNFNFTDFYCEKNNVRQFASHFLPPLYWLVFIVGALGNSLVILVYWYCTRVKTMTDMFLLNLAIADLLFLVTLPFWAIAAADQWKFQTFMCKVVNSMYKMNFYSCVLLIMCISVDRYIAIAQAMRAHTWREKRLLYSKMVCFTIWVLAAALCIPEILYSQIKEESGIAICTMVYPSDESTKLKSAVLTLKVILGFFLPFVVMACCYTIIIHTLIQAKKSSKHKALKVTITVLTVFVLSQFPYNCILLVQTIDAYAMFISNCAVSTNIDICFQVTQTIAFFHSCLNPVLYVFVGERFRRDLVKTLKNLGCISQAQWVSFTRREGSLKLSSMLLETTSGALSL
Text: (§1) With 6 (Figure 1), a first lead structure for intracellular CCR1 inhibition that features an approximately 20-fold CCR1 over CCR2 selectivity was previously discovered by Ortiz Zacarías et al.([33]) In order to discover new chemotypes for selective CCR1 over CCR2 inhibition, we aimed to apply our novel NanoBRET competition binding assay for CCR1 in combination with our recently published CCR2 competition binding assay based on 7.[47] In our first attempt, we screened a small in-house library enriched with intracellular GPCR ligands and structural analogues thereof. […] Additionally, we tested 23 for binding to the IABS of CCR9 and CXCR2 using our recently reported NanoBRET-based assay platform (Figure 6C).[44],[45] In the course of these studies, we detected no binding of 23 to CCR9 and CXCR2 up to a concentration of 20 μM. Since cell lineage-dependent effects have been observed for CCR1 antagonists,[59] we studied the CCR1 over CCR2 selectivity of 23 by using a previously reported radioligand binding assay with membrane preparations from osteosarcoma (U2OS) cells stably expressing human CCR1 or CCR2.[33] […] In agreement with these previous reports,[33] we observed a reduction in CCR1 over CCR2 selectivity when moving from membrane-based binding assays to cell-based functional assays. […]

CCR1 [5] = target: T2, CCR1; experiment: Live cell NanoBRET binding assay, HEK293T cells expressing CCR1_Nluc; set-up: Promega pNLF1-C (Nluc) #CCR010TN00; host or cells: HEK293T, transient (PEI); conditions: 12 (1000 nM), live HEK293T cells; read-out: Ki, live cells
CCR1 [6] = target: T2, CCR1; experiment: Membrane-based NanoBRET competition assay with 12 (2000 nM) and CCR1_Nluc membranes; format: binding; set-up: Promega pNLF1-C (Nluc) #CCR010TN00; host or cells: HEK293T, transient (PEI); conditions: 12 (2000 nM)
CXCR2 = target: T4, CXCR2 (Homo sapiens, UniProt P25025); experiment: NanoBRET-based assay for binding to the IABS of CXCR2, as previously reported; conditions: compound at 20 μM; read-out: % inh. of tracer binding, CXCR2
T4 construct: host or cells: HEK293T, transient
T4 sequence (P25025 1-360): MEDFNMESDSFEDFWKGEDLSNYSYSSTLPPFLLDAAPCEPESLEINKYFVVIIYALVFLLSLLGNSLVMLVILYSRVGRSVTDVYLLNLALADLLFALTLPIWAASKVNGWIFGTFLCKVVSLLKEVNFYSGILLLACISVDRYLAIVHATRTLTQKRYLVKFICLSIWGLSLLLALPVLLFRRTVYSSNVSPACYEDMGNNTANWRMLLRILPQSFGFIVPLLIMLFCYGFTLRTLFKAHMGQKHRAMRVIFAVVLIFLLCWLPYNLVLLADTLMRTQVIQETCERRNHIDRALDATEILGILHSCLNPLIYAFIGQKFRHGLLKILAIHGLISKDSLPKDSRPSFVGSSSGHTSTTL
Text: as §1

CCR2 [7] = target: T1, CCR2; experiment: NanoBRET competition binding assay for CCR2 based on 7, as previously reported; conditions: compound at 100 μM; read-out: % inh. of tracer binding, CCR2
Text: With 6 (Figure 1), a first lead structure for intracellular CCR1 inhibition that features an approximately 20-fold CCR1 over CCR2 selectivity was previously discovered by Ortiz Zacarías et al.([33]) In order to discover new chemotypes for selective CCR1 over CCR2 inhibition, we aimed to apply our novel NanoBRET competition binding assay for CCR1 in combination with our recently published CCR2 competition binding assay based on 7.[47] In our first attempt, we screened a small in-house library enriched with intracellular GPCR ligands and structural analogues thereof. […] Additionally, we tested 23 for binding to the IABS of CCR9 and CXCR2 using our recently reported NanoBRET-based assay platform (Figure 6C).[44],[45] In the course of these studies, we detected no binding of 23 to CCR9 and CXCR2 up to a concentration of 20 μM. Since cell lineage-dependent effects have been observed for CCR1 antagonists,[59] we studied the CCR1 over CCR2 selectivity of 23 by using a previously reported radioligand binding assay with membrane preparations from osteosarcoma (U2OS) cells stably expressing human CCR1 or CCR2.[33] […] In agreement with these previous reports,[33] we observed a reduction in CCR1 over CCR2 selectivity when moving from membrane-based binding assays to cell-based functional assays. […] To investigate a potential signaling bias of 23, we tested the compound by means of a NanoBiT miniGi recruitment assay.[60] […] Thus, this indicated no strong signaling bias of 23 (Figures S9E and S10C). To elucidate the SAR of this new scaffold for selective CCR1 over CCR2 inhibition, we synthesized several analogues of 23 (24–40) and tested them by means of our NanoBRET competition binding assays (Schemes S2 and S3, Table 1, Figures 6F and S11). First, we aimed to examine the impact of the stereochemistry of 23 on CCR1 affinity. As for the structurally related pyrrolone 4, large differences in CCR2 affinity between the eutomer 4-[R] and the distomer 4-[S] were described.[61] […] Furthermore, we identified the 4-hydroxyphenethyl group at position 1 of the pyrrolone scaffold as highly important for CCR1 affinity and selectivity. Its presence seems to block CCR2 binding, also when combined with the structural features of the high-affinity CCR2 ligand 5, as exemplified by 24. Especially the 4-hydroxy group at this moiety is essential for CCR1 binding (see 25 and 26). […] In position 5 of the pyrrolone, several aromatic and aliphatic substituents were tolerated (see 31–35).

SMILES: O=C(C1=C(O)C(=O)N(c2ccc(Br)cc2F)C1c1cccc(Br)c1)C1CC1 (stereo not drawn) [compound 6]
- CCR2, % @ 1 μM (CCR2 [1]): 45%
- CCR1 over CCR2 selectivity (CCR1 [2]): approximately 20 fold

- Kd (CCR1 [4]): 11300 ± 800 nM
SMILES: CN(C)c1ccc2c(-c3cc(C(=O)NCc4cn(CCCC(=O)C5=C(O)C(=O)N(c6ccc(Cl)cc6F)C5C5CCCCC5)nn4)ccc3C(=O)[O-])c3ccc(=[N+](C)C)cc-3oc2c1 (stereo not drawn) [compound 8]
- Kd (CCR2 [3]): 2260 nM

- Kd (CCR1 [4]): 14900 ± 2100 nM
SMILES: CN(C)c1ccc2c(-c3cc(C(=O)NCc4cn(CCCC(=O)C5=C(O)C(=O)N(c6ccc(Br)cc6F)C5C5CCCCC5)nn4)ccc3C(=O)[O-])c3ccc(=[N+](C)C)cc-3oc2c1 (stereo not drawn) [compound 9]
- Kd (CCR2 [3]): 2270 nM

- inhibition at 20 µM (CCR9): 15%
- Ki (CCR1 [5]): 1290 nM
- Ki (CCR1 [6]; CCR1_Nluc membranes, read-out: Ki, CCR1 (converted)): 357 nM
- % inh. of tracer binding, CCR1 (CCR1 [6]; compound at 20 μM): ≥ 50%
- inhibition at 20 µM (CXCR2): 2%
- inhibition at 100 µM (CCR2 [7]): 29%
SMILES: NC(=O)CSc1nnc(-c2ccc(Cl)cc2)n1C1CCCCC1 [compound 43]
